Source: PubChem BioAssay (NCI)
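Exposure lasted 48 hours, with cells grown in 96-well plates and compounds tested at five concentrations. At the GI50, growth is halved. TGI: total growth inhibition.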

How the values were obtained:
Test in all cases: NCI-60 cell line screen, 48 h
786-0 renal = system: 786-0 renal
A498 renal = system: A498 renal
A549 NSCLC = system: A549 NSCLC
ACHN renal = system: ACHN renal
BT-549 breast = system: BT-549 breast
CAKI-1 renal = system: CAKI-1 renal
CCRF-CEM leukemia = system: CCRF-CEM leukemia
COLO 205 colon = system: COLO 205 colon
DU-145 prostate = system: DU-145 prostate
EKVX NSCLC = system: EKVX NSCLC
HCC-2998 colon = system: HCC-2998 colon
HCT-116 colon = system: HCT-116 colon
HCT-15 colon = system: HCT-15 colon
HL-60(TB) leukemia = system: HL-60(TB) leukemia
HOP-62 NSCLC = system: HOP-62 NSCLC
HOP-92 NSCLC = system: HOP-92 NSCLC
HS 578T breast = system: HS 578T breast
HT29 colon = system: HT29 colon
IGROV1 ovarian = system: IGROV1 ovarian
K-562 leukemia = system: K-562 leukemia
KM12 colon = system: KM12 colon
LOX IMVI melanoma = system: LOX IMVI melanoma
M14 melanoma = system: M14 melanoma
MALME-3M melanoma = system: MALME-3M melanoma
MCF7 breast = system: MCF7 breast
MDA-MB-231 breast = system: MDA-MB-231 breast
MDA-MB-435 = system: MDA-MB-435
MOLT-4 leukemia = system: MOLT-4 leukemia
NCI-H226 lung = system: NCI-H226 lung
NCI-H23 lung = system: NCI-H23 lung
NCI-H460 lung = system: NCI-H460 lung
NCI-H522 lung = system: NCI-H522 lung
NCI/ADR-RES ovarian = system: NCI/ADR-RES ovarian
OVCAR-3 ovarian = system: OVCAR-3 ovarian
OVCAR-4 ovarian = system: OVCAR-4 ovarian
OVCAR-5 ovarian = system: OVCAR-5 ovarian
OVCAR-8 ovarian = system: OVCAR-8 ovarian
PC-3 prostate = system: PC-3 prostate
RPMI-8226 leukemia = system: RPMI-8226 leukemia
RXF 393 renal = system: RXF 393 renal
SF-268 CNS = system: SF-268 CNS
SF-295 CNS = system: SF-295 CNS
SF-539 CNS = system: SF-539 CNS
SK-MEL-2 melanoma = system: SK-MEL-2 melanoma
SK-MEL-28 melanoma = system: SK-MEL-28 melanoma
SK-MEL-5 melanoma = system: SK-MEL-5 melanoma
SK-OV-3 ovarian = system: SK-OV-3 ovarian
SN12C renal = system: SN12C renal
SNB-19 CNS = system: SNB-19 CNS
SNB-75 CNS = system: SNB-75 CNS
SR leukemia = system: SR leukemia
SW-620 colon = system: SW-620 colon
T-47D breast = system: T-47D breast
TK-10 renal = system: TK-10 renal
U251 CNS = system: U251 CNS
UACC-257 melanoma = system: UACC-257 melanoma
UACC-62 melanoma = system: UACC-62 melanoma
UO-31 renal = system: UO-31 renal

Compound: COc1cccc2[nH]c3c4c(c5c(c3c12)C(=O)N(CN1CCN(C)CC1)C5=O)CCC4
- GI50 (786-0 renal): 13.3 µM
- TGI (786-0 renal): 31.8 µM
- GI50 (A498 renal): 2.73 µM
- TGI (A498 renal): > 100 µM
- GI50 (A549 NSCLC): 8.49 µM
- TGI (A549 NSCLC): 25.6 µM
- GI50 (ACHN renal): 5.81 µM
- TGI (ACHN renal): 36.4 µM
- GI50 (BT-549 breast): 19 µM
- TGI (BT-549 breast): 99.1 µM
- GI50 (CAKI-1 renal): 4.34 µM
- TGI (CAKI-1 renal): 38.8 µM
- GI50 (CCRF-CEM leukemia): 5.55 µM
- TGI (CCRF-CEM leukemia): 33.3 µM
- GI50 (COLO 205 colon): 11.4 µM
- TGI (COLO 205 colon): 35.6 µM
- GI50 (DU-145 prostate): 9.22 µM
- TGI (DU-145 prostate): 21.6 µM
- GI50 (EKVX NSCLC): 14.1 µM
- TGI (EKVX NSCLC): 83.3 µM
- GI50 (HCC-2998 colon): 15.6 µM
- TGI (HCC-2998 colon): > 76 µM
- GI50 (HCT-116 colon): 13.2 µM
- TGI (HCT-116 colon): 45.7 µM
- GI50 (HCT-15 colon): 7.33 µM
- TGI (HCT-15 colon): 25.9 µM
- GI50 (HL-60(TB) leukemia): 19.6 µM
- TGI (HL-60(TB) leukemia): > 75.1 µM
- GI50 (HOP-62 NSCLC): 14.5 µM
- TGI (HOP-62 NSCLC): 39.1 µM
- GI50 (HOP-92 NSCLC): 15.1 µM
- TGI (HOP-92 NSCLC): 44.9 µM
- GI50 (HS 578T breast): 18.2 µM
- TGI (HS 578T breast): > 88.3 µM
- GI50 (HT29 colon): 8.99 µM
- TGI (HT29 colon): 29.8 µM
- GI50 (IGROV1 ovarian): 4.79 µM
- TGI (IGROV1 ovarian): > 46.1 µM
- GI50 (K-562 leukemia): 16.3 µM
- TGI (K-562 leukemia): > 67.8 µM
- GI50 (KM12 colon): 12.3 µM
- TGI (KM12 colon): 49.7 µM
- GI50 (LOX IMVI melanoma): 11.8 µM
- TGI (LOX IMVI melanoma): 40.7 µM
- GI50 (M14 melanoma): 9.91 µM
- TGI (M14 melanoma): > 80.4 µM
- GI50 (MALME-3M melanoma): 6.43 µM
- TGI (MALME-3M melanoma): 63.2 µM
- GI50 (MCF7 breast): 9.27 µM
- TGI (MCF7 breast): 39.7 µM
- GI50 (MDA-MB-231 breast): 15 µM
- TGI (MDA-MB-231 breast): 31.3 µM
- GI50 (MDA-MB-435): 7.37 µM
- TGI (MDA-MB-435): 30.7 µM
- GI50 (MOLT-4 leukemia): 5.9 µM
- TGI (MOLT-4 leukemia): 42.3 µM
- GI50 (NCI-H226 lung): 9.46 µM
- TGI (NCI-H226 lung): > 90.9 µM
- GI50 (NCI-H23 lung): 15 µM
- TGI (NCI-H23 lung): > 72.5 µM
- GI50 (NCI-H460 lung): 6.35 µM
- TGI (NCI-H460 lung): 25.8 µM
- GI50 (NCI-H522 lung): 8.95 µM
- TGI (NCI-H522 lung): > 56.9 µM
- GI50 (NCI/ADR-RES ovarian): 12.2 µM
- TGI (NCI/ADR-RES ovarian): 37.5 µM
- GI50 (OVCAR-3 ovarian): 13.7 µM
- TGI (OVCAR-3 ovarian): 34.2 µM
- GI50 (OVCAR-4 ovarian): 8.03 µM
- TGI (OVCAR-4 ovarian): 26.9 µM
- GI50 (OVCAR-5 ovarian): 14.5 µM
- TGI (OVCAR-5 ovarian): 44.6 µM
- GI50 (OVCAR-8 ovarian): 8.6 µM
- TGI (OVCAR-8 ovarian): 26.5 µM
- GI50 (PC-3 prostate): 6.58 µM
- TGI (PC-3 prostate): > 46.7 µM
- GI50 (RPMI-8226 leukemia): 4.6 µM
- TGI (RPMI-8226 leukemia): 23.8 µM
- GI50 (RXF 393 renal): 3.45 µM
- TGI (RXF 393 renal): 13.6 µM
- GI50 (SF-268 CNS): 13.5 µM
- TGI (SF-268 CNS): > 52.3 µM
- GI50 (SF-295 CNS): 10.1 µM
- TGI (SF-295 CNS): 25.6 µM
- GI50 (SF-539 CNS): 11.3 µM
- TGI (SF-539 CNS): 26 µM
- GI50 (SK-MEL-2 melanoma): 22.7 µM
- TGI (SK-MEL-2 melanoma): > 100 µM
- GI50 (SK-MEL-28 melanoma): 10.8 µM
- TGI (SK-MEL-28 melanoma): 29.8 µM
- GI50 (SK-MEL-5 melanoma): 8.26 µM
- TGI (SK-MEL-5 melanoma): > 100 µM
- GI50 (SK-OV-3 ovarian): 11.7 µM
- TGI (SK-OV-3 ovarian): 29.8 µM
- GI50 (SN12C renal): 11.2 µM
- TGI (SN12C renal): 33.9 µM
- GI50 (SNB-19 CNS): 13.3 µM
- TGI (SNB-19 CNS): 34.6 µM
- GI50 (SNB-75 CNS): 9.2 µM
- TGI (SNB-75 CNS): 40.5 µM
- GI50 (SR leukemia): 2.11 µM
- TGI (SR leukemia): 11.1 µM
- GI50 (SW-620 colon): 13.6 µM
- TGI (SW-620 colon): 38 µM
- GI50 (T-47D breast): 4.62 µM
- TGI (T-47D breast): > 73.9 µM
- GI50 (TK-10 renal): 6.85 µM
- TGI (TK-10 renal): 28.3 µM
- GI50 (U251 CNS): 6.3 µM
- TGI (U251 CNS): 21.8 µM
- GI50 (UACC-257 melanoma): 14.8 µM
- TGI (UACC-257 melanoma): 45.1 µM
- GI50 (UACC-62 melanoma): 9.9 µM
- TGI (UACC-62 melanoma): 30.9 µM
- GI50 (UO-31 renal): 2.76 µM
- TGI (UO-31 renal): > 23.8 µM
